Data published in US6590123B2, “Aminobenzoic acid derivatives having anti-tumorigenic activity, methods of making and using the same” (Mount Sinai School of Medicine of New York University, priority 1998, dated 2003).
“Also recorded” adds a separate entry of the source.

Legend:
CEM cells [1] = assay: Cell cycle analysis by flow cytometry; type: cell-based, human; settings: for shift of the cell population from G0/G1 (2N) to G2/M (4N), DNA profile: 8 h treatment, compound 6 2.5 μg/ml, compound 8 0.025 μg/ml, compound 9 0.005 μg/ml; for Apoptosis (%) / G0/G1 (%) / G2/M (%) / S (%) / Mitotic Arrest: 0.025 μg/ml; for Mitotic Arrest: cell cycle analyses
CEM cells [2] = assay: Morphology by microscopy (mitotic arrest, apoptosis, necrosis); type: cell-based, human; parameters: key to Block of Mitosis: +Block of mitosis was observed; −no mitotic blocking; settings: for mitotic arrest (blocking) effect, morphological appearance / Mitotic arrest, % / apoptosis by morphology: CEM cells; for mitotic arrest (blocking) effect, morphological appearance: 24 h, compound 8 at 0.025 μg/ml, compound 9 at 0.005 μg/ml; for morphological effect on leukemic cells / Activities of inducing Apoptosis / Activities of inducing Mitotic block / Activities of inducing Necrosis: CEM leukemic cells; for Activities of inducing Apoptosis / Activities of inducing Mitotic block / Activities of inducing Necrosis: % of affected cells; for Mitotic arrest, %: % of mitotic cells after 24 h incubation, optical microscopy; for apoptosis by morphology: treatment prolonged to 48 h
Method: Slides for examination of mitosis were prepared on a cytospin centrifuge (Shandon Southern Products Ltd, England ) at 700 g for 5 min. Slides were air dried, fixed in methanol and stained with Giemsa (Harleco, N.J.) at room temperature for 15 min. Cells in mitotic arrest were recognized by the disappearance of nuclear membrane and by the appearance of chromosomal scattering throughout the cytoplasm (reference 1). The % of mitotic cells were counted after 24 h incubation using optical microscopy. Apoptotic cells were identified using common criteria, i.e., shrinkage in cell size, chromatin condensation and fragmentation of the nucleus into discrete masses (reference 2).
Cell samples on slides were prepared by a Cytospin centrifuge (Shandon Southern Products Ltd, England) at 700 g for 5 min. The slides were air dried, fixed in methanol and stained with Giemsa (Harleco, N.J.) at room temperature for 15 min. Alterations of nuclei, membranes and morphological features were observed by light microscopy. Cells in mitotic phase were recognized by the appearance of their chromosomes dispersed in the cytoplasm, and by the disappearance of nuclear membrane. Apoptotic-cells were identified using previously defined criteria, i.e., shrinkage in cell size, chromatin condensation and fragmentation of the nucleus into discrete masses (references 2 & 3). Necrotic cells were differentiated from apoptotic cells by observing swollen cytoplasm and the disappearance of cell membrane prior to the destruction of the nucleus.

Purified tubulin = assay: Inhibition of microtubule assembly by spectrophotometry, cell free system; type: biochemical, calf; settings: cell free tubulin; for inhibition of microtubule assembly: 1 μg/ml (3.3 μM for 3-BAABU)
Method: Purified tubulin was purchased from Sigma (St. Louis, Mo.). The effects of compounds 6, 7, 8, 9, paclitaxel and vinblastine on the microtubule assembly-disassembly process were determined using conditions recommended by the vendor. For assembly inhibition, 100 μl tubulin solution (500-600 μg protein/ml) was mixed gently with 400 μl reaction buffer containing 0.1 M MES (2-[N-morpholino]ethane sulfonic acid), 1 mM EGTA ([…]-N,N,N′,N′-tetraacetic acid), 0.5 mM MgCl2, 0.1 mM EDTA and 2.5 M gycerol at 37° C. Compounds 6, 7, 8, and 9 were next added to each sample at final concentrations of 10, 10, 1 and 1 μg/ml, respectively. After adding GTP to each sample to a final concentration of 1 mM, the microtubule assembly process was monitored by measuring the change of absorbance (OD) at 350 nm on a spectrophotometer (Ultrospec III, Pharmacia LKB, Uppsala, Sweden). A completed assembly process was observed within 40 min at room temperature. For disassembly inhibition, compounds 6, 7, 8, and 9 were added, at the above concentrations, to covets with repolymerized microtubules as described above, and incubated in melting ice. Changes of absorbance (OD) were monitored at 350 nm for 30 min until the OD values in the controls returned to the starting level, i.e., when the assembly-disassembly cycle was completed.
Purified tubulin from calf brain was purchased from Sigma (St. Louis, Mo.). The effects of 3-BAABU (3-bromoacetoamido, benzoylurea) on the microtubule assembly-disassembly process were determined using the conditions recommended by the vendor. For assembly inhibition, 100 μl tubulin solution (500-600 μg protein/ml) was mixed gently with 400 μl reaction buffer containing 0.1 M MES, 1 mM EGTA, 0.5 mM MgCl2, 0.1 mM EDTA and 2.5 M glycerol at 37° C. 3-BAABU, paclitaxel or vinblastine were then added to each sample cuvet at final concentrations of 3.3, 23 or 22 μM, respectively. After adding GTP to each sample to a final concentration of 1 mM, the microtubule assembly process was monitored by measuring the change of absorbance (OD) every 5 min at 350 nm on a spectrophotometer (Ultrospec III, Pharmacia LKB, Uppsala, Sweden). A completed assembly process was observed within 40 min at room temperature. For disassembly inhibition, 3-BAABU (3.3 μM), paclitaxel (23 μM) or vinblastine (22 μM) was added to a cuvet with repolymerized microtubules according to the method described above, and incubated in melting ice. Changes of absorbance (OD) were monitored at 350 nm for 30 min until the OD values in the controls returned to the starting level, i.e., completion of the assembly-disassembly cycle. Solvent solutions were used as control and had no effect in either the assembly or disassembly process.

NC(=O)NC(=O)c1cccc(NC(=O)CCl)c1 [Compound 7, 3-Chloroacetoamido, benzoylurea]
shift of the cell population from G0/G1 (2N) to G2/M (4N), DNA profile (CEM cells [1]): slight increase
mitotic arrest (blocking) effect, morphological appearance (CEM cells [2]): minor
morphological effect on leukemic cells (CEM cells [2]): also induced mitotic arrest but with less disorganization
Activities of inducing Apoptosis (CEM cells [2]): ++ (++: 25-50%)
Activities of inducing Mitotic block (CEM cells [2]): + (+10-25%)
Activities of inducing Necrosis (CEM cells [2]): − (−:<10%)
effect on microtubule assembly (Purified tubulin; up to 10 μg/ml): very weak inhibitory effect; also recorded: no effect

NC(=O)NC(=O)c1cccc(NC(=O)CBr)c1 [Compound 8, 3-Bromoacetoamido, benzoylurea]
Apoptosis (%) (CEM cells [1]; 1 hour of treatment): 2%
G0/G1 (%) (CEM cells [1]; 1 hour of treatment): 48%
G2/M (%) (CEM cells [1]; 1 hour of treatment): 21%
S (%) (CEM cells [1]; 1 hour of treatment): 29%
Apoptosis (%) (CEM cells [1]; 2 hours of treatment): 1%
G0/G1 (%) (CEM cells [1]; 2 hours of treatment): 35%
G2/M (%) (CEM cells [1]; 2 hours of treatment): 22%
S (%) (CEM cells [1]; 2 hours of treatment): 42%
Apoptosis (%) (CEM cells [1]; 4 hours of treatment): 4%
G0/G1 (%) (CEM cells [1]; 4 hours of treatment): 28%
G2/M (%) (CEM cells [1]; 4 hours of treatment): 29%
S (%) (CEM cells [1]; 4 hours of treatment): 39%
Apoptosis (%) (CEM cells [1]; 8 hours of treatment): 5%
G0/G1 (%) (CEM cells [1]; 8 hours of treatment): 16%
G2/M (%) (CEM cells [1]; 8 hours of treatment): 44%
S (%) (CEM cells [1]; 8 hours of treatment): 35%
Apoptosis (%) (CEM cells [1]; 12 hours of treatment): 7%
G0/G1 (%) (CEM cells [1]; 12 hours of treatment): 4%
G2/M (%) (CEM cells [1]; 12 hours of treatment): 60%
S (%) (CEM cells [1]; 12 hours of treatment): 29%
Apoptosis (%) (CEM cells [1]; 24 hours of treatment): 18%
G0/G1 (%) (CEM cells [1]; 24 hours of treatment): 2%
G2/M (%) (CEM cells [1]; 24 hours of treatment): 70%
S (%) (CEM cells [1]; 24 hours of treatment): 10%
Apoptosis (%) (CEM cells [1]; 48 hours of treatment): 33%
G0/G1 (%) (CEM cells [1]; 48 hours of treatment): 1%
G2/M (%) (CEM cells [1]; 48 hours of treatment): 61%
S (%) (CEM cells [1]; 48 hours of treatment): 5%
shift of the cell population from G0/G1 (2N) to G2/M (4N), DNA profile (CEM cells [1]): major shift
Mitotic Arrest (CEM cells [1]; Continuous Exposure (24 hr; 48 hr in footnote)): ++++ (++++: >75% cells were affected)
Mitotic Arrest (CEM cells [1]; Pulse Exposure (1 hr)): ++++ (++++: >75% cells were affected)
mitotic arrest (blocking) effect, morphological appearance (CEM cells [2]): main features of mitotic arrest
Mitotic arrest, % (CEM cells [2]): >85%
apoptosis by morphology (CEM cells [2]): complete apoptosis
morphological effect on leukemic cells (CEM cells [2]): induced mitotic arrest
Activities of inducing Apoptosis (CEM cells [2]): ++++ (++++: >75%)
Activities of inducing Mitotic block (CEM cells [2]): ++++ (++++: >75%)
Activities of inducing Necrosis (CEM cells [2]): − (−:<10%)
Block of Mitosis (CEM cells [2]; CEM, Human T-cell Leukemia, 37° C. for 48 hr): +
inhibition of microtubule assembly (Purified tubulin): complete inhibition; also recorded: completely inhibited
inhibition of microtubule assembly (Purified tubulin; listed as 3-BAABU): Complete inhibition

NC(=O)NC(=O)c1cccc(NC(=O)CI)c1 [Compound 9, 3-Iodoacetoamido, benzoylurea]
shift of the cell population from G0/G1 (2N) to G2/M (4N), DNA profile (CEM cells [1]): most significant transformation; also recorded: major shift
mitotic arrest (blocking) effect, morphological appearance (CEM cells [2]): main features of mitotic arrest
Mitotic arrest, % (CEM cells [2]): >85%
apoptosis by morphology (CEM cells [2]): complete apoptosis
inhibition of microtubule assembly (Purified tubulin): complete inhibition; also recorded: completely inhibited
